The source of these data is patent US20030109552A1, “Use of insulin sensitisers for treating renal diseases” (SmithKline Beecham p.l.c., priority 1994, published 2003).

Common to all, as to type: in vivo, rat
Assay [1] has as its system Zucker fatty (fa/fa) rats. The experiment in a line: Systolic blood pressure (tail cuff) in Zucker fatty rats, 9 month study. The method, then:
(§1) A second study was performed in Zucker rats over a period of 9 months to investigate the longitudinal effects of the drug on systolic blood pressure and various indices of renal function, two of which are exemplified here. In one arm of the study, the drug was given in the diet (50 μmole/kg of diet) from aged 6-7weeks in Zucker fatty (fa/fa) rats, whilst in a second arm of the study, drug treatment as above was delayed until proteinuria had become established after 4 months, indicative of structural damage already present in the kidneys. A third group of Zucker fatty rats and a further group of lean rats were given diet alone throughout the period of study.
(§2) After dosing with the test compound, at monthly intervals measurements were made of systolic blood pressure, urinary total protein and urinary N-acetyl β-D-glucosaminidase (NAG) activity.
Rats were enclosed in custom-built restrainers and placed on a shelf in a warming cabinet, whose temperature was controlled at approximately 30° C. An inflatable cuff with integral pulse sensor was attached to the tail of each rat. After warming for 20-30 min the tail cuff was inflated and deflated automatically and a measurement of systolic blood pressure made using an IITC Non-Invasive Blood Pressure Monitor. This cycle was repeated several times for each rat until stable values of blood pressure were obtained.

The test system of assay [2] is Zucker fatty (fa/fa) rats. The experiment in a line: Urinary N-acetyl β-D-glucosaminidase (NAG) activity in Zucker fatty rats, 9 month study. On the procedure: as §1, §2
Twenty-four hour urine collections, made in metabolism cages, were aliquoted and frozen at −70° C. until required for assay.
NAG activity was assayed using a reagent kit on a Hitachi 717 analyser (both supplied by Boehringer Mannheim UK, Lewes). Enzyme activity was measured by monitoring the rate of chlorophenol (570 nm) released from the substrate chlorophenol red-β-D-glucosaminide.

In assay [3] the test system is Zucker fatty (fa/fa) rats. The experiment in a line: Urinary total protein (Bio-Rad protein assay, 24 h urine) in Zucker fatty rats, 9 month study. On the procedure:
A second study was performed in Zucker rats over a period of 9 months to investigate the longitudinal effects of the drug on systolic blood pressure and various indices of renal function, two of which are exemplified here. […] A third group of Zucker fatty rats and a further group of lean rats were given diet alone throughout the period of study. After dosing with the test compound, at monthly intervals measurements were made of systolic blood pressure, urinary total protein and urinary N-acetyl β-D-glucosaminidase (NAG) activity. Twenty-four hour urine collections, made in metabolism cages, were aliquoted and frozen at −70° C. until required for assay. Urinary protein concentration was measured using the Bio-Rad protein assay as modified for use in a 96-well microtitre plate. The assay is a dye-binding assay based on the differential colour change of a dye in response to various concentrations of protein (Bradford, Anal. Biochem., 72, 248, 1976). After a period of incubation with Dye Reagent, diluted urine samples are read at an optical density of 595 nm using a Molecular Devices multiplate reader.

In another assay the test system is obese Zucker fa/fa rats. The experiment in a line: Renal histopathology in obese Zucker fa/fa rats, 3 months dietary administration. Also noted: key to Chronic Nephropathy (histopathological severity, kidney): 0: None seen; ±: Minimal; +: Mild; ++: Moderate; +++: Marked. On the procedure: Obese Zucker rats are known to develop chronic nephropathy in addition to hyperlipidaemia, hyperinsulinaemia and peripheral insulin resistance (Kasiske et al 1985).
5-[4-[2-(N-methyl-N-(2-pyridyl)amino)ethoxy]benzyl]thiazolidine-2,4-dione (herein after referred to as ‘test compound’) was administered to 2-3 month old obese Zucker fa/fa rats by dietary administration to provide a daily dose over a period of 3 months ranging from 2.0-7.0 μmole/kg body weight. A group of age-matched obese Zucker fa/fa rats were given the same diet without the addition of the test compound, as was a group of lean Fa/? rats. At the end of the study, all of the control Zucker fa/fa rats had chronic nephropathy which involved dilated tubules, atrophied or hyperplastic tubular epithelial cells, thickened tubular basement membranes, segmented glomeruli or global glomerulosclerosis.

Setting [4] is: Zucker fatty (fa/fa) rats treated from the age of 6-7 weeks for 9 months via the diet.
The mark [5] stands for this setting: drug treatment commenced after proteinuria had become established.

Structures are written as SMILES.

Consider `CN(CCOc1ccc(CC2SC(=O)NC2=O)cc1)c1ccccn1` (stereo not drawn) [Test Compound, 5-[4-[2-(N-methyl-N-(2-pyridyl)amino)ethoxy]benzyl]thiazolidine-2,4-dione], for which the development of hypertension entry in assay [1] (setting [4]) was “prevented the development of hypertension”. Further, the “systolic blood pressure (further rise)” value in assay [1] (setting [5]) is on record as “prevented from rising further”. The “elevation of urinary NAG activity” value in assay [2] (setting [4]) was “markedly reduced”. The “urinary NAG activity (further rise)” value in assay [2] (setting [5]) was “prevented from rising further”. The “rate of development of proteinuria” value in assay [3] (setting [4]) is on record as “markedly reduced”. In assay [3] (setting [5]), the “rate of increase in the urinary protein concentration” value is “marked reduction of the rate of increase”. The “Chronic Nephropathy (histopathological severity, kidney)” value with obese Zucker fa/fa rats (individual fatty Zucker rats, test compound in diet 2.0-7.0 μmole/kg body weight daily) is reported as “++”. In addition, in the assay with obese Zucker fa/fa rats (obese Zucker fa/fa rats, diet, 2.0-7.0 μmole/kg daily), the “incidence and degree of chronic nephropathy compared to control Zucker fa/fa rats” value was “reduction in the incidence and degree of chronic nephropathy”. Also, in the assay on obese Zucker fa/fa rats (obese Zucker fa/fa rats, diet, 2.0-7.0 μmole/kg daily, controls 4/9), the “hydronephrosis seen in treated rats” value is “No hydronephrosis was seen”.
